The text below walks through data of US8163909B2, “Substituted hydroxyethyl amine compounds as beta-secretase modulators and methods of use” (Amgen Inc., priority 2007, dated 2012).

Like-named read-outs stand apart in the source and are kept apart here.

One data set concerns the target CYP2D6 (Homo sapiens, UniProt P10635). Description: CYP2D6 inhibition assay (bufuralol, pooled human liver microsomes). A general note: Liver microsomes are a subcellular fraction often used to study metabolism.
A short description of data set [1]: Microsomal stability assay, human liver microsomes.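 Also: pooled human liver microsomes at 0.25 mg/mL with 1 µM compound and NADPH at 37 °C, pH 7.4, for 30 min, unchanged parent quantified by LC-MS/MS against the 0 min sample.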
Data set [2] is described as follows: Microsomal stability assay, rat liver microsomes.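 Also: rat liver microsomes (0.25 mg/mL) with about 1 µM compound plus 1 mM NADPH, pH 7.4, 37 °C for 30 min, parent left measured by LC-MS/MS against 0 min.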
In a further data set the target is CYP3A (Homo sapiens, UniProt P08684). Particulars: CYP3A4 inhibition; for IC50: read-out: 3A4 IC50.
Data set [3] relates to Aβ40 in conditioned medium of cells stably expressing Amyloid Precursor Protein (APP). Description: In vitro BACE cell-based assay (Aβ40 in conditioned medium, sandwich ELISA).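 Also: compounds added as a dilution series, secreted peptide quantified by europium time-resolved fluorescence readout, potency fitted from percent of control versus compound concentration.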 On the technique in general: In an ELISA, binding on a coated surface is turned into a signal by an enzyme label.
The target of data set [4] is Beta Secretase enzyme (BACE) (Homo sapiens, UniProt P56817). Description: In vitro enzymatic BACE FRET (fluorescence resonance energy transfer) assay.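 Also: fluorescence read after 1 h with 50 nM quenched peptide substrate spanning the BACE cleavage site, in pH 4.2 acetate buffer containing 10% DMSO and nonionic detergent.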 It counts as biochemical.
A further data set deals with CYP3A4 (CYP3A) (Homo sapiens, UniProt P08684). Description: in vitro. Particulars: microsomes, pH 7.4.
The test system of another data set is Abeta peptide. As to the kind of experiment: In vivo inhibition of beta-secretase (reduction of Abeta peptide in brain and cerebrospinal fluid).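 Also: abeta peptide quantified by sandwich ELISA with electrochemiluminescence readout in rat brain supernatant or CSF, relative to vehicle-dosed control animals.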 Set-up: species or system rat. The following applies: po, orally administered at 30 mg/kg dose, measured after 4 hours.
The conditions of data set [5]: human, microsomes, 1 μM, pH 7.4.
The conditions of data set [6]: rat, microsomes, 1 μM, pH 7.4.
Where [7] appears, read: read-out: 2D6 IC50, CYP2D6 inhibition.
Where [8] appears, read: 2D6 IC50, CYP enzyme inhibition.
Setting [9] is: Homo sapiens, HEK293, cell-based assay, HEK cells, IC50's in uM, read-out: HEK cell assay.
Setting [10] is: Rattus norvegicus, 4 h, rat cerebrospinal fluid, read-out: percent reduction of abeta peptide in the cerebrospinal fluid of the rat.
Setting [11] is: BACE enzyme assay, IC50's in uM, read-out: BACE1 FRET assay.
[12] abbreviates: Rattus norvegicus, 4 h, rat brain, read-out: percent reduction of abeta peptide in the brain of the rat.

CYP2D6, sequence (P10635 whole entry): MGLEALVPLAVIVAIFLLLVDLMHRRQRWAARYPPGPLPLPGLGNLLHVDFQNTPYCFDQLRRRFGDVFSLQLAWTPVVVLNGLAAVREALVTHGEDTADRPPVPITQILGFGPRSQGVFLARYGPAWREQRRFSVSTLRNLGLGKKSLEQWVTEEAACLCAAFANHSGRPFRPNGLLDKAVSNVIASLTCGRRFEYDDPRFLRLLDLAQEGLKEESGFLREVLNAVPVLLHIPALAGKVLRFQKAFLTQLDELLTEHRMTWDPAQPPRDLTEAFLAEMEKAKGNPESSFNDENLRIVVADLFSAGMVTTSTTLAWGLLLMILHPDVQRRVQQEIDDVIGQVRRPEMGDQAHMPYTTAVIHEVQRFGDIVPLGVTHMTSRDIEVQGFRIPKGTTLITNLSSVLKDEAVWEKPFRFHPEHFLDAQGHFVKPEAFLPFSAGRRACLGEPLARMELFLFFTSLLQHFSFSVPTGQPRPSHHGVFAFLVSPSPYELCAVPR
CYP3A, sequence (P08684 2-503): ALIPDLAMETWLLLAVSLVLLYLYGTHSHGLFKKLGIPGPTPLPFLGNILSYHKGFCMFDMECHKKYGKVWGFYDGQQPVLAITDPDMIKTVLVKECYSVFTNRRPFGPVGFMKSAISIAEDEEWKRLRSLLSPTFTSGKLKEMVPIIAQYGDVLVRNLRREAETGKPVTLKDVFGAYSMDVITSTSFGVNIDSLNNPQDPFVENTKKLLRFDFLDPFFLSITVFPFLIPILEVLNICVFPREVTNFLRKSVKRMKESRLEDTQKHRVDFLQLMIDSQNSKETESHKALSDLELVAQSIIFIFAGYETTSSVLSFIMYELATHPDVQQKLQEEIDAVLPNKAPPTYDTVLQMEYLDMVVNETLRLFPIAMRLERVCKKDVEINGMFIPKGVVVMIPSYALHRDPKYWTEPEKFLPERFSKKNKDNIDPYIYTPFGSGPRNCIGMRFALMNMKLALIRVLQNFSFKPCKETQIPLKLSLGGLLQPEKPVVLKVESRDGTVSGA
CYP3A4 (CYP3A), sequence (P08684 2-503): as above
Beta Secretase enzyme (BACE), sequence (P56817 46-501): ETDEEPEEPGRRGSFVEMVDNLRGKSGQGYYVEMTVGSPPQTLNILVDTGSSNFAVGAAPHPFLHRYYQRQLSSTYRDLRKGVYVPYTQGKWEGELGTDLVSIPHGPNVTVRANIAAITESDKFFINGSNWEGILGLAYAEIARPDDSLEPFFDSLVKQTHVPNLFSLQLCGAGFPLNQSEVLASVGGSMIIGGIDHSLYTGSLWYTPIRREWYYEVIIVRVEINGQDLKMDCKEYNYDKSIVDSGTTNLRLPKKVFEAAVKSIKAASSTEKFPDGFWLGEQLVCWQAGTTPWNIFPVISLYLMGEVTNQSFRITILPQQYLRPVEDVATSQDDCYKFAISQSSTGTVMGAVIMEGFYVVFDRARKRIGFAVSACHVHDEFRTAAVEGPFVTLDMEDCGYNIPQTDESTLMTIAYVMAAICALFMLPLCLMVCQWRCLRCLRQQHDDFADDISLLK

As to `CC(=O)N[C@@H](Cc1cc(F)cc(-c2nccs2)c1)[C@H](O)CN[C@H]1CC2(CCC2)Oc2ncc(CC(C)(C)C)cc21` [Example 435, N-((2S,3R)-4-((S)-2,2-spirocyclobutyl-6-neopentyl-3,4-dihydro-2H-pyrano[2,3-b]pyridin-4-ylamino)-1-(3-fluoro-5-(thiazol-2-yl)phenyl)-3-hydroxybutan-2-yl)acetamide], the IC50 stood at 0.3 µM at CYP2D6 (setting [7]); 1400 nM at CYP3A; 0.039 µM in [3] (HEK cells, read-out: HEK cell assay (IC50)); 0.006 µM in [4] (read-out: BACE1 FRET assay (IC50)). This molecule registered an HLM in [1] (human liver microsomes) of 125 µL/min/mg. In data set [2] (rat liver microsomes), the RLM was 197 µL/min/mg.

Take `CC(=O)N[C@@H](Cc1ccc(F)c(-c2cscn2)c1)[C@H](O)CN[C@H]1CC2(CCC2)Oc2ccc(CC(C)(C)C)cc21` [Example 436, N-((2S,3R)-4-((S)-2,2-spirocyclobutyl-6-neopentyl-3,4-dihydro-2H-chromen-4-ylamino)-1-(4-fluoro-3-(thiazol-4-yl)phenyl)-3-hydroxybutan-2-yl)acetamide]: the IC50 at CYP2D6 (setting [7]) worked out at 2.2 µM; on CYP3A it was 200 nM; in data set [3] (HEK cell-based assay IC50, read-out: HEK cell assay), 0.024 µM; in data set [4] (BACE enzyme assay IC50, read-out: BACE1 FRET assay), 0.005 µM. In data set [1] (human liver microsomes), the “HLM” value came out at 135 µL/min/mg. The “RLM” value in [2] (rat liver microsomes) was 78 µL/min/mg.

For the molecule `COCC(=O)N[C@@H](Cc1ccc(F)cc1)[C@H](O)CN[C@H]1CC2(CCC2)Oc2c1cc(CC(C)(C)C)nc2-c1c[nH]cn1` [Example 529], the IC50 against CYP2D6 (2D6 IC50 (uM), CYP enzyme inhibition) came out at 0.7 µM; against CYP3A4 (CYP3A), 100 nM; in data set [3] (Homo sapiens, HEK293, HEK cells, read-out: HEK cell assay) it was 0.012 µM; in data set [4] (BACE enzyme assay, read-out: BACE1 FRET assay) it was 0.023 µM. Moreover, the inhibition in vivo at 30 mg/kg in the data set on Abeta peptide (rat cerebrospinal fluid, read-out: percent reduction of abeta peptide in the cerebrospinal fluid of the rat) was in the range of 10 to 80%. The “HLM” value in data set [5] was 37 µL/min/mg. In addition, the “RLM” value in data set [6] was 40 µL/min/mg.

With `C#Cc1cccc(C[C@H](NC(=O)[C@@H](C)OC)[C@H](O)CN[C@H]2CC3(CCC3)Oc3ncc(CC(C)(C)C)cc32)c1` [Example 849, (2R)-N-((1S,2R)-3-(((4′S)-6′-(2,2-dimethylpropyl)-3′,4′-dihydrospiro[cyclobutane-1,2′-pyrano[2,3-b]pyridin]-4′-yl)amino)-1-(3-ethynylbenzyl)-2-hydroxypropyl)-2-methoxypropanamide], the IC50 turned out to be 3.2 µM at CYP2D6 (setting [8]), 50 nM against CYP3A4 (CYP3A), 0.008 µM in data set [3] (setting [9]) and 0.005 µM in [4] (setting [11]). In addition, the HLM in [1] (human liver microsomal data) amounted to 18 µL/min/mg. The RLM in data set [2] (rat liver microsomal data) was 43 µL/min/mg. The inhibition in vivo at 30 mg/kg in the data set with Abeta peptide (setting [10]) was no less than 50%.

As to `CC(C)(C)Cc1cnc2c(c1)[C@@H](NC[C@@H](O)[C@H](Cc1cc(F)cc(-c3nccs3)c1)NC(=O)C1CCC1)CC1(CCC1)O2` [Example 875], the IC50 was 0.3 µM against CYP2D6 (setting [8]), 200 nM on CYP3A4 (CYP3A), 0.02 µM in [3] (setting [9]) and 0.006 µM in data set [4] (setting [11]). Moreover, the HLM in [1] (human liver microsomal data) is 65 µL/min/mg. The molecule also came in with an RLM in data set [2] (rat liver microsomal data) of 81 µL/min/mg. Further, the inhibition in vivo at 30 mg/kg with Abeta peptide (setting [12]) was 5 to 80%.

With `CC(C)(C)Cc1cnc2c(c1)[C@@H](NC[C@@H](O)[C@H](Cc1cc(F)cc(-c3nccs3)c1)NC(=O)[C@@H]1CCCO1)CC1(CCC1)O2` [Example 879], the IC50 at 10 min at CYP2D6 (human, pooled human liver microsomes, pH 7.4, probe bufuralol, about 5 μM, 2D6 IC50, CYP enzyme inhibition) was 600 nM. In data set [1] (human liver microsomal data), this molecule gave an HLM of 96 µL/min/mg. The same molecule yielded an RLM in data set [2] (rat liver microsomal data) of 77 µL/min/mg. The values for the IC50 (at CYP3A4 (CYP3A); in data set [3] (setting [9]); in [4] (setting [11])) were 200 nM, 0.007 µM and 0.006 µM, respectively. In addition, the inhibition in vivo at 30 mg/kg in the data set on Abeta peptide (setting [12]) lay in the range of 5 to 80%.

Turning to `C#Cc1ccc(F)c(C[C@H](NC(=O)[C@@H](C)OC)[C@H](O)CN[C@H]2CC3(CCC3)Oc3ncc(CC(C)(C)C)cc32)c1` [Example 902], the IC50 at CYP2D6 (setting [8]) was determined as 0.9 µM; at CYP3A4 (CYP3A) it was 100 nM; in [3] (setting [9]), 0.026 µM; in data set [4] (setting [11]), 0.006 µM. In data set [1] (human liver microsomal data), this molecule had an HLM of 36 µL/min/mg. The molecule also returned an RLM in data set [2] (rat liver microsomal data) of 70 µL/min/mg. In addition, in the data set with Abeta peptide (setting [10]), the inhibition in vivo at 30 mg/kg was in the range of 10 to 80%.

In the case of `COCC(=O)N[C@@H](Cc1cc(F)cc(F)c1)[C@H](O)CN[C@H]1CC2(CCC2)Oc2c1cc([C@H]1CC1(C)C)nc2-c1ccncc1` [compound 678], the “HLM” value in data set [5] came out at 23 µL/min/mg. Besides, the “RLM” value in data set [6] was 79 µL/min/mg.

Turning to `COCC(=O)N[C@@H](Cc1cc(F)cc(F)c1)[C@H](O)CN[C@H]1CC2(CCC2)Oc2c1cc([C@H]1CC1(C)C)nc2-c1ccncc1` [compound 703], the “3A4 IC50” value on CYP3A amounted to 200 nM. Also, the “HLM” value in data set [5] worked out at 32 µL/min/mg. In addition, in data set [6], the “RLM” value amounted to 118 µL/min/mg.

Regarding `COCC(=O)N[C@@H](Cc1cccc(-c2nccs2)c1)[C@H](O)CN[C@H]1C[C@@]2(CCOC2)Oc2ncc(CC(C)(C)C)cc21` [compound 814, N-((1S,2R)-3-(((3S,4′S)-6′-(2,2-dimethylpropyl)-3′,4,4′,5-tetrahydrospiro[furan-3,2′-pyrano[2,3-b]pyridin]-4′-yl)amino)-2-hydroxy-1-(3-(1,3-thiazol-2-yl)benzyl)propyl)-2-methoxyacetamide], the “HLM” value in data set [5] turned out to be 40 µL/min/mg. Further, in data set [6], the “RLM” value was 112 µL/min/mg.

For `COCC(=O)N[C@@H](Cc1cccc(-c2nccs2)c1)[C@H](O)CN[C@H]1C[C@]2(CCOC2)Oc2ncc(CC(C)(C)C)cc21` [compound 822], the “HLM” value in data set [5] turned out to be 54 µL/min/mg. Also, in data set [6], the “RLM” value came out at 101 µL/min/mg.

For `COCC(=O)N[C@@H](Cc1cccc(-c2nccs2)c1)[C@H](O)CN[C@H]1C[C@@]2(CCOC2)Oc2ncc(CC(C)(C)C)cc21` [compound 823, N-((1S,2R)-3-(((3S,4′S)-6′-(2,2-dimethylpropyl)-3′,4,4′,5-tetrahydrospiro[furan-3,2′-pyrano[2,3-b]pyridin]-4′-yl)amino)-2-hydroxy-1-(3-(1,3-thiazol-2-yl)benzyl)propyl)-2-methoxyacetamide], in [5], the “HLM” value stood at 57 µL/min/mg. Further, in data set [6], the “RLM” value was found to be 171 µL/min/mg.

On to `C#Cc1cccc(C[C@H](NC(=O)COC)[C@H](O)CN[C@H]2C[C@]3(CCOC3)Oc3ncc(CC(C)(C)C)cc32)c1` [compound 824], for which, in data set [5], the “HLM” value turned out to be 21 µL/min/mg. Besides, in data set [6], the “RLM” value turned out to be 28 µL/min/mg.

For `COCC(=O)N[C@@H](Cc1cccc(-c2nccs2)c1)[C@H](O)CN[C@H]1C[C@]2(CCOC2)Oc2ncc(CC(C)(C)C)cc21` [compound 845], in [5], the “HLM” value came to 64 µL/min/mg. Besides, the “RLM” value in data set [6] amounted to 152 µL/min/mg.

For `COCC(=O)N[C@@H](Cc1cccc(-c2nccs2)c1)[C@H](O)CN[C@H]1C[C@@]2(CCOC2)Oc2ncc(CC(C)(C)C)cc21` [compound 846, N-((1S,2R)-3-(((3S,4′S)-6′-(2,2-dimethylpropyl)-3′,4,4′,5-tetrahydrospiro[furan-3,2′-pyrano[2,3-b]pyridin]-4′-yl)amino)-2-hydroxy-1-(3-(1,3-thiazol-2-yl)benzyl)propyl)-2-methoxyacetamide], the “HLM” value in data set [5] was determined as 82 µL/min/mg. In [6], the “RLM” value turned out to be 128 µL/min/mg.

Molecule `C#Cc1cccc(C[C@H](NC(=O)COC)[C@H](O)CN[C@H]2C[C@]3(CCOC3)Oc3ncc(CC(C)(C)C)cc32)c1` [compound 868] registered an HLM in data set [5] of 14 µL/min/mg. This molecule showed an RLM in data set [6] of 86 µL/min/mg.
